Measured values reported in PubChem BioAssay AID2060882 (Molecular Pharmacology Branch, DTP, NCI, 2025).

System: 898857-211-R-J1-PDC complex spheroids, growth % test/control
Test: Anticancer human tumor 898857-211-R-J1-PDC patient-derived melanoma cell line growth inhibition [RAS]
Details: for IC50: curve of first compound; for viability, T/C: stronger effect = lower value
Procedure, shortened: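 Tumour cells grown as complex spheroids with HUVEC endothelial cells and mesenchymal stem cells, treated with RAS pathway inhibitor combinations. Each agent spans half-log steps from near clinical Cmax, or 10 microM where Cmax is unknown.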

[1] = second compound 0.000949 µM, first compound 0.0316 µM
[2] = second compound 0.000949 µM, first compound 0.1 µM
[3] = second compound 0.000949 µM, first compound 0.316 µM
[4] = second compound 0.000949 µM, first compound 1 µM
[5] = second compound 0.000949 µM, first compound 3.16 µM
[6] = second compound 0.000949 µM, first compound 10 µM
[7] = second compound 0.003 µM, first compound 0.0316 µM
[8] = second compound 0.003 µM, first compound 0.1 µM
[9] = second compound 0.003 µM, first compound 0.316 µM
[10] = second compound 0.003 µM, first compound 1 µM
[11] = second compound 0.003 µM, first compound 3.16 µM
[12] = second compound 0.003 µM, first compound 10 µM
[13] = second compound 0.00949 µM, first compound 0.0316 µM
[14] = second compound 0.00949 µM, first compound 0.1 µM
[15] = second compound 0.00949 µM, first compound 0.316 µM
[16] = second compound 0.00949 µM, first compound 1 µM
[17] = second compound 0.00949 µM, first compound 3.16 µM
[18] = second compound 0.00949 µM, first compound 10 µM
[19] = second compound 0.03 µM, first compound 0.0316 µM
[20] = second compound 0.03 µM, first compound 0.1 µM
[21] = second compound 0.03 µM, first compound 0.316 µM
[22] = second compound 0.03 µM, first compound 1 µM
[23] = second compound 0.03 µM, first compound 3.16 µM
[24] = second compound 0.03 µM, first compound 10 µM
[25] = second compound 0.0949 µM, first compound 0.0316 µM
[26] = second compound 0.0949 µM, first compound 0.1 µM
[27] = second compound 0.0949 µM, first compound 0.316 µM
[28] = second compound 0.0949 µM, first compound 1 µM
[29] = second compound 0.0949 µM, first compound 3.16 µM
[30] = second compound 0.0949 µM, first compound 10 µM
[31] = second compound 0.3 µM, first compound 0.0316 µM
[32] = second compound 0.3 µM, first compound 0.1 µM
[33] = second compound 0.3 µM, first compound 0.316 µM
[34] = second compound 0.3 µM, first compound 1 µM
[35] = second compound 0.3 µM, first compound 3.16 µM
[36] = second compound 0.3 µM, first compound 10 µM
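Note: spheroids exposed to compound for seven days before readout.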
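Throughout, for viability, T/C: 100% = DMSO vehicle control wells.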

CC1(O)CCCC1n1c(=O)c(C(F)F)cc2cnc(NC3CCN(S(C)(=O)=O)CC3)nc21 (stereo not given) + CCn1c(-c2cc(N3CCN(C)CC3)cnc2C(C)OC)c2c3cc(ccc31)-c1csc(n1)CC(NC(=O)C1CC1C)C(=O)N1CCCC(N1)C(=O)OCC(C)(C)C2
IC50 (second compound 0.000949 µM): 121 nM
IC50 (second compound 0.003 µM): 168 nM
IC50 (second compound 0.00949 µM): 138 nM
IC50 (second compound 0.03 µM): 124 nM
IC50 (second compound 0.0949 µM): 188 nM
IC50 (second compound 0.3 µM): 144 nM
viability, T/C [1]: 92.9%
viability, T/C [2]: 49.7%
viability, T/C [3]: 35.1%
viability, T/C [4]: 38.6%
viability, T/C [5]: 36.2%
viability, T/C [6]: 15.2%
viability, T/C [7]: 90.7%
viability, T/C [8]: 58.5%
viability, T/C [9]: 33.5%
viability, T/C [10]: 39.4%
viability, T/C [11]: 35.1%
viability, T/C [12]: 17.2%
viability, T/C [13]: 78.2%
viability, T/C [14]: 51%
viability, T/C [15]: 37.6%
viability, T/C [16]: 34.7%
viability, T/C [17]: 37.5%
viability, T/C [18]: 15.4%
viability, T/C [19]: 100%
viability, T/C [20]: 49.5%
viability, T/C [21]: 38.4%
viability, T/C [22]: 36.5%
viability, T/C [23]: 36.7%
viability, T/C [24]: 16.6%
viability, T/C [25]: 96%
viability, T/C [26]: 53.6%
viability, T/C [27]: 43.2%
viability, T/C [28]: 38.7%
viability, T/C [29]: 37.2%
viability, T/C [30]: 16.9%
viability, T/C [31]: 107%
viability, T/C [32]: 55.4%
viability, T/C [33]: 33.6%
viability, T/C [34]: 36.3%
viability, T/C [35]: 34.2%
viability, T/C [36]: 16%

CCC(CC)c1cc(NC2CCC(N)C2)n2nccc2n1 (stereo not given) + CCn1c(-c2cc(N3CCN(C)CC3)cnc2C(C)OC)c2c3cc(ccc31)-c1csc(n1)CC(NC(=O)C1CC1C)C(=O)N1CCCC(N1)C(=O)OCC(C)(C)C2
IC50 (second compound 0.000949 µM): 594 nM
IC50 (second compound 0.003 µM): 589 nM
IC50 (second compound 0.00949 µM): 609 nM
IC50 (second compound 0.03 µM): 571 nM
IC50 (second compound 0.0949 µM): 615 nM
IC50 (second compound 0.3 µM): 604 nM
viability, T/C [1]: 113%
viability, T/C [2]: 100%
viability, T/C [3]: 87.1%
viability, T/C [4]: 19.7%
viability, T/C [5]: 0.45%
viability, T/C [6]: 0.75%
viability, T/C [7]: 95.1%
viability, T/C [8]: 94%
viability, T/C [9]: 82%
viability, T/C [10]: 22.8%
viability, T/C [11]: 0.27%
viability, T/C [12]: 0.25%
viability, T/C [13]: 92.2%
viability, T/C [14]: 105%
viability, T/C [15]: 84.4%
viability, T/C [16]: 23.6%
viability, T/C [17]: 0.8%
viability, T/C [18]: 0.2%
viability, T/C [19]: 102%
viability, T/C [20]: 89.5%
viability, T/C [21]: 80.9%
viability, T/C [22]: 21.2%
viability, T/C [23]: 0.38%
viability, T/C [24]: 0.27%
viability, T/C [25]: 109%
viability, T/C [26]: 102%
viability, T/C [27]: 86.3%
viability, T/C [28]: 23.8%
viability, T/C [29]: 0.81%
viability, T/C [30]: 0.19%
viability, T/C [31]: 104%
viability, T/C [32]: 105%
viability, T/C [33]: 84.8%
viability, T/C [34]: 22.9%
viability, T/C [35]: 0.32%
viability, T/C [36]: 0.26%

CCN1CCN(Cc2ccc(Nc3ncc(F)c(-c4cc(F)c5nc(C)n(C(C)C)c5c4)n3)nc2)CC1 + CCn1c(-c2cc(N3CCN(C)CC3)cnc2C(C)OC)c2c3cc(ccc31)-c1csc(n1)CC(NC(=O)C1CC1C)C(=O)N1CCCC(N1)C(=O)OCC(C)(C)C2
IC50 (second compound 0.000949 µM): 267 nM
IC50 (second compound 0.003 µM): 191 nM
IC50 (second compound 0.00949 µM): 261 nM
IC50 (second compound 0.03 µM): 248 nM
IC50 (second compound 0.0949 µM): 252 nM
IC50 (second compound 0.3 µM): 288 nM
viability, T/C (second compound 0.000949 µM, first compound 0.00316 µM): 108%
viability, T/C (second compound 0.000949 µM, first compound 0.01 µM): 94.2%
viability, T/C [1]: 82.1%
viability, T/C [2]: 57.4%
viability, T/C [3]: 51.6%
viability, T/C [4]: 36.9%
viability, T/C (second compound 0.003 µM, first compound 0.00316 µM): 105%
viability, T/C (second compound 0.003 µM, first compound 0.01 µM): 96%
viability, T/C [7]: 85.8%
viability, T/C [8]: 54.9%
viability, T/C [9]: 47.7%
viability, T/C [10]: 38.1%
viability, T/C (second compound 0.00949 µM, first compound 0.00316 µM): 96.8%
viability, T/C (second compound 0.00949 µM, first compound 0.01 µM): 97.4%
viability, T/C [13]: 82.3%
viability, T/C [14]: 79.8%
viability, T/C [15]: 42.7%
viability, T/C [16]: 36.4%
viability, T/C (second compound 0.03 µM, first compound 0.00316 µM): 96.9%
viability, T/C (second compound 0.03 µM, first compound 0.01 µM): 102%
viability, T/C [19]: 75.4%
viability, T/C [20]: 67.4%
viability, T/C [21]: 46.3%
viability, T/C [22]: 29.4%
viability, T/C (second compound 0.0949 µM, first compound 0.00316 µM): 107%
viability, T/C (second compound 0.0949 µM, first compound 0.01 µM): 113%
viability, T/C [25]: 87.2%
viability, T/C [26]: 64.3%
viability, T/C [27]: 48.9%
viability, T/C [28]: 39%
viability, T/C (second compound 0.3 µM, first compound 0.00316 µM): 117%
viability, T/C (second compound 0.3 µM, first compound 0.01 µM): 110%
viability, T/C [31]: 76%
viability, T/C [32]: 70.2%
viability, T/C [33]: 48.5%
viability, T/C [34]: 33.9%

Cc1nc(N2CCC3(CC2)COC(C)C3N)c(CO)nc1Sc1ccnc(N)c1Cl (stereo not given) + CCn1c(-c2cc(N3CCN(C)CC3)cnc2C(C)OC)c2c3cc(ccc31)-c1csc(n1)CC(NC(=O)C1CC1C)C(=O)N1CCCC(N1)C(=O)OCC(C)(C)C2
IC50 (second compound 0.000949 µM): > 10000 nM
IC50 (second compound 0.003 µM): > 10000 nM
IC50 (second compound 0.00949 µM): > 10000 nM
IC50 (second compound 0.03 µM): > 10000 nM
IC50 (second compound 0.0949 µM): > 10000 nM
IC50 (second compound 0.3 µM): > 10000 nM
viability, T/C [1]: 99.6%
viability, T/C [2]: 98%
viability, T/C [3]: 93.6%
viability, T/C [4]: 94.2%
viability, T/C [5]: 94.3%
viability, T/C [6]: 86.1%
viability, T/C [7]: 96.1%
viability, T/C [8]: 92.2%
viability, T/C [9]: 105%
viability, T/C [10]: 96.4%
viability, T/C [11]: 92.2%
viability, T/C [12]: 85.5%
viability, T/C [13]: 96%
viability, T/C [14]: 110%
viability, T/C [15]: 112%
viability, T/C [16]: 103%
viability, T/C [17]: 96.9%
viability, T/C [18]: 77.7%
viability, T/C [19]: 109%
viability, T/C [20]: 107%
viability, T/C [21]: 106%
viability, T/C [22]: 97.6%
viability, T/C [23]: 99.5%
viability, T/C [24]: 74.8%
viability, T/C [25]: 115%
viability, T/C [26]: 116%
viability, T/C [27]: 110%
viability, T/C [28]: 107%
viability, T/C [29]: 107%
viability, T/C [30]: 84.7%
viability, T/C [31]: 90.7%
viability, T/C [32]: 105%
viability, T/C [33]: 99.2%
viability, T/C [34]: 111%
viability, T/C [35]: 104%
viability, T/C [36]: 76.9%

NC1c2ccccc2OC12CCN(c1cnc3c(N4CCCc5ncccc54)n[nH]c3n1)CC2 (stereo not given) + CCn1c(-c2cc(N3CCN(C)CC3)cnc2C(C)OC)c2c3cc(ccc31)-c1csc(n1)CC(NC(=O)C1CC1C)C(=O)N1CCCC(N1)C(=O)OCC(C)(C)C2
IC50 (second compound 0.000949 µM): > 10000 nM
IC50 (second compound 0.003 µM): > 10000 nM
IC50 (second compound 0.00949 µM): > 10000 nM
IC50 (second compound 0.03 µM): > 10000 nM
IC50 (second compound 0.0949 µM): 8350 nM
IC50 (second compound 0.3 µM): 8210 nM
viability, T/C [1]: 101%
viability, T/C [2]: 87.5%
viability, T/C [3]: 91.5%
viability, T/C [4]: 81.9%
viability, T/C [5]: 81.4%
viability, T/C [6]: 51%
viability, T/C [7]: 103%
viability, T/C [8]: 87.9%
viability, T/C [9]: 101%
viability, T/C [10]: 85.7%
viability, T/C [11]: 81.3%
viability, T/C [12]: 55.5%
viability, T/C [13]: 87.7%
viability, T/C [14]: 97.7%
viability, T/C [15]: 92.1%
viability, T/C [16]: 102%
viability, T/C [17]: 74.3%
viability, T/C [18]: 56.7%
viability, T/C [19]: 91.5%
viability, T/C [20]: 87.8%
viability, T/C [21]: 93.8%
viability, T/C [22]: 73.5%
viability, T/C [23]: 81.9%
viability, T/C [24]: 50%
viability, T/C [25]: 113%
viability, T/C [26]: 99.8%
viability, T/C [27]: 102%
viability, T/C [28]: 88.5%
viability, T/C [29]: 83.9%
viability, T/C [30]: 43%
viability, T/C [31]: 112%
viability, T/C [32]: 92.6%
viability, T/C [33]: 81.3%
viability, T/C [34]: 98%
viability, T/C [35]: 78.7%
viability, T/C [36]: 43.5%
